# Test results taken from US20230202997A1, “CHROMANOL, QUINONE OR HYDROQUINONE COMPOUNDS FOR TREATMENT OF SEPSIS” (Sulfateq B.V., priority 2020, published 2023).
# Key:
# IL-1β mRNA expression = assay: Inhibition of LPS-induced IL-1β mRNA expression in NRK52E; assay type: cell-based, Rat; conditions: 10 μM for 30 min, then LPS 24 hours
# Procedure: (§1) Rat kidney epithelial cells (ATCC #CRL-1571) were maintained in DMEM medium containing 10% fetal bovine serum, and 1% Penicillin-Streptomycin solution (Sigma-Aldrich). NRK52E cells were passaged by trypsinization when the cultures reached a confluency of 70%. For all experiments, NRK52E cells were seeded at 0.6·10^5 cells/cm^2 and allowed to adhere for 24 hours.
# (§2) HUVEC and NRK52E cells were pre-incubated with SUL compounds (10 μM) for 30 min and subsequently exposed to LPS for 24 hours under standard culture conditions. Cells were lysed in triZOL reagens (Invitrogen) and total RNA isolated according to manufacturers' instruction. 1 μg total RNA per sample was reverse transcribed using the FirstAid Reverse Transcription Kit (ThermoFisher). Copy-DNA equivalents of 5 ng total RNA were amplified on a ViiA7 Real-time PCR system (ThermoFisher, Waltham, Mass.) using iTaq Universal SYBR Green Supermix (Bio-Rad, Hercules, Calif.) and primers specific for tumor necrosis factor alpha, interleukin 1 beta, interleukin-6 and beta actin as loading control. Amplification was performed for 40 cycles of 95° C. for 30 s, 60° C. for 1 min. Relative mRNA expression was calculated as 2^−(Cq^gene^−Cq^reference^) and normalized to unstimulated control cells (100% inhibition) and vehicle-treated and LPS exposed cells (0% inhibition). The following primers were used: […]
# IL-6 mRNA expression = assay: Inhibition of LPS-induced IL-6 mRNA expression in NRK52E; assay type: cell-based, Rat; conditions: 10 μM for 30 min, then LPS 24 hours
# Procedure: as §1, §2
# [1] = test system: NO production in RAW264.7 macrophages; assay: Macrophage NO production (nitrate in conditioned medium), basal and after LPS; assay type: cell-based, Mouse
# Procedure: Mouse macrophage RAW264.7 cells (ATCC #TIB-71) were maintained in DMEM medium containing 10% fetal bovine serum, and 1% Penicillin-Streptomycin solution (Sigma-Aldrich). […] For all experiments, RAW264.7 cells were seeded at 0.5·10^5 cells/cm^2 and allowed to adhere for 24 hours. Cellular production of NO was approximated by measuring nitrate concentrations in culture media using the Measure-IT™ High-Sensitivity Nitrite Assay Kit (#M36051, ThermoFisher) according to manufacturer's instructions. […] Therefore, nitrate concentrations in conditioned media are a good approximate to assess cellular NO production. 50 μl conditioned medium derived from a single 96-wells plate well was used per assay and normalized against protein concentration. All experiments were performed in quadruplicate. LPS induces macrophage NO production by activating iNOS. RAW264.7 macrophages were pre-treated with vehicle (DMSO), BN-80933, SUL-138, or SUL-150 or (all 10 μM) prior to endotoxin (LPS 100 ng/ml) exposure for 24 hours. The nitrate levels in the conditioned medium from LPS exposed RAW264.7 macrophages averaged at 83 pmol/mg protein (˜16-fold increase versus non-exposed RAW264.7 cells, p=0.001).
# [2] = test system: cytoplasmic oxidative stress in HUVEC; assay: LPS-induced cellular superoxide in HUVEC (DHE); assay type: cell-based, Human; conditions: 10 μM for 30 min, LPS 100 ng/ml 24 hours
# Procedure: (§3) Human Umbilical Cord Endothelial Cells (HUVEC, Lonza CC-2519) were maintained on 1% gelatin-coated culture flasks in RPMI1640 medium containing 20% fetal bovine serum, 2 mM Glutamine (Sigma-Aldrich), 1% Penicillin-Streptomycin solution (Sigma-Aldrich) and 50 μg/ml Bovine Pituitary Extract (Invitrogen). HUVEC were passaged by trypsinization when the cultures reach a confluency of 70%. For all experiments, HUVEC were seeded at 0.6·10^5 cells/cm^2 and allowed to adhere for 24 hours.
# (§4) The production of cellular and mitochondrial oxidative stress was measured using fluorescent probes for cellular and mitochondrial superoxide, i.e. dihydroethidium (DHE) and MitoSox (ThermoFisher), respectively. HUVEC were incubated with BN-80933, SUL-138 or SUL-150 (all 10 μM) for 30 min. Next, HUVEC were exposed to LPS (100 ng/ml) for an additional 24 hours. In the final hour of incubation, 2.5 μM of DHE or MitoSox was applied to each sample. HUVEC were washed in PBS and fixed in 4% paraformaldehyde at room temperature for 15 min. Nuclear staining was performed by 5 μM […] (DAPI) and fluorescence intensity of the samples was recorded in a CLARIOStar Plus plate reader (BMG Labtech) equipped with the appropriate filter sets. Fluorescence recordings for DHE and MitoSox were corrected for DAPI fluorescence. All experiments were performed in quadruplicate.
# [3] = test system: mitochondrial oxidative stress in HUVEC; assay: LPS-induced mitochondrial superoxide in HUVEC (MitoSox); assay type: cell-based, Human; conditions: 10 μM for 30 min, LPS 100 ng/ml 24 hours
# Procedure: as §3, §4
compound,measurement,setting,value
"Cc1c(C)c2c(c(C)c1O)CC[C@@](C)(C(=O)N1CCN(CCO)CC1)O2 [SUL-138, (S)-(6-hydroxy-2,5,7,8-tetramethylchroman-2-yl)(4-(2-hydroxyethyl)piperazin-1-yl)methanone]",inhibition of LPS-induced mRNA expression of IL-1β,IL-1β mRNA expression,65.2 ± 8.9 %
same,inhibition of LPS-induced mRNA expression of IL-6,IL-6 mRNA expression,65.3 ± 7.6 %
same,LPS-induced increase in extracellular nitrate level,"[1]; 10 μM pre-treatment, LPS 100 ng/ml for 24 hours",Neither SUL-138 nor SUL-150 strongly suppressed the LPS-induced increase in nitrate production
same,basal production of extracellular nitrate,"[1]; no LPS, 10 μM","Neither BN-80933, SUL-138, nor SUL-150 affected the basal production of extracellular nitrate"
same,LPS-induced cytoplasmic oxidative stress (DHE),[2],mitigates the induction of cytoplasmic oxidative stress
same,LPS-induced mitochondrial oxidative stress (MitoSox),[3],precluded the LPS-induced increase in mitochondrial oxidative stress
